“Also recorded” adds a separate entry of the source.
Experiments:
Format in all cases: in vivo, mice
[1] = tested on: SFO^nNOS neurons; assay: Acute activation of SFO^nNOS neurons by hM3Dq-mCherry with CNO; details: hM3Dq-mCherry in SFO^nNOS; intraperitoneal CNO 1 mg/kg
Experimental: Long-term access assays: Optogenetic Testing—For FIGS. 1L-N and FIGS. 7L-O, satiated mice were given ad libitum access to water for 20 min with photostimulation. Photostimulation was delivered for 1-s followed by 3-s intervals throughout the behavioral sessions. For FIGS. 2J-M and FIGS. 11C-E, mice were given access to water for 20 min after 24 h water-restriction, and photostimulation was delivered for the first 10 min. For feeding assays (FIGS. 2J-M), animals were single-housed in Biodaq cages after 24 h food-restriction, and chow intake was measured for 20 min with or without light stimulation. […] The weight of the cup was measured before and after the behavior session. […] The entire session was recorded using a camera at 30 fps and ingestion episodes were manually annotated.
We measured bulk fluorescence signals using fiber photometry as previously described^[26]. […] The fluorescence signal was then focused onto a femtowatt photoreceiver (Newport, Model 2151). […] The licks from the lickometer were simultaneously recorded as real-time TTL signals to the RP2.1. Fluorescence changes were analyzed using custom MATLAB (MathWorks) code as described previously^[26]. […] The resultant ΔF/F was calculated as (raw 490 nm signal-fitted 405 nm signal)/(fitted 405 nm signal). For brief access tests, the Area Under Curve (ΣΔFduring) was quantified by integrating the fluorescence signals during the bout. […]

[2] = tested on: mCherry control animals; assay: mCherry controls for acute inhibition (CNO without hM4Di)
Experimental: Long-term access assays: Optogenetic Testing—For FIGS. 1L-N and FIGS. 7L-O, satiated mice were given ad libitum access to water for 20 min with photostimulation. Photostimulation was delivered for 1-s followed by 3-s intervals throughout the behavioral sessions. For FIGS. 2J-M and FIGS. 11C-E, mice were given access to water for 20 min after 24 h water-restriction, and photostimulation was delivered for the first 10 min. For feeding assays (FIGS. 2J-M), animals were single-housed in Biodaq cages after 24 h food-restriction, and chow intake was measured for 20 min with or without light stimulation. For acute inhibition experiments, mice were given access to 150 mM NaCl (FIGS. 5D-E, FIGS. 13E-F), water (FIGS. 1L-N, FIGS. 7L-O, FIGS. 13A-D, FIGS. 13G-H) for 20-30 min after 24 h water-restriction or 300 mM sucrose (FIGS. 1L-N, FIGS. 7L-O) after food-restriction. For all acute inhibition experiments, CNO was injected at 10 mg/kg body weight, 30 min prior to the start of the behavior session. For acute activation experiments, CNO was injected at 1 mg/kg body weight (FIGS. 12L-M), 30 min prior to the start of the behavior session. […] The weight of the cup was measured before and after the behavior session. […] The entire session was recorded using a camera at 30 fps and ingestion episodes were manually annotated.

[3] = tested on: MnPO^nNOS neurons; assay: Drinking assays with chemogenetic inhibition of MnPO^nNOS neurons by CNO; details: hM4Di in MnPO^nNOS, CNO injection 10 mg/kg
Experimental: (§1) For water-restriction experiments, animals were provided with 1 mL of water daily. For food restriction experiments, animals were provided 0.5 pellets/20 g body weight daily. All assays were performed in a modified lickometer as described previously^[35] or Biodaq monitoring system (Research Diets Inc). For all photometry assays, animals were acclimatized for 10-15 min in the lickometer cage before stimuli were given.
Long-term access assays: Optogenetic Testing—For FIGS. 1L-N and FIGS. 7L-O, satiated mice were given ad libitum access to water for 20 min with photostimulation. Photostimulation was delivered for 1-s followed by 3-s intervals throughout the behavioral sessions. For FIGS. 2J-M and FIGS. 11C-E, mice were given access to water for 20 min after 24 h water-restriction, and photostimulation was delivered for the first 10 min. For feeding assays (FIGS. 2J-M), animals were single-housed in Biodaq cages after 24 h food-restriction, and chow intake was measured for 20 min with or without light stimulation. For acute inhibition experiments, mice were given access to 150 mM NaCl (FIGS. 5D-E, FIGS. 13E-F), water (FIGS. 1L-N, FIGS. 7L-O, FIGS. 13A-D, FIGS. 13G-H) for 20-30 min after 24 h water-restriction or 300 mM sucrose (FIGS. 1L-N, FIGS. 7L-O) after food-restriction. For all acute inhibition experiments, CNO was injected at 10 mg/kg body weight, 30 min prior to the start of the behavior session. For acute activation experiments, CNO was injected at 1 mg/kg body weight (FIGS. 12L-M), 30 min prior to the start of the behavior session. For FIG. 3A, FIGS. 9A-C, and FIG. 13L, water or saline access was provided for 30 min after 24 hours of water restriction. For FIGS. 4A-B, water or HydroGel (ClearH2O) in a cup was provided for 30 min after 24 and 36 hours of water restriction, respectively. The weight of the cup was measured before and after the behavior session. For FIGS. 4K-L, 0.5 pellets of chow was provided for 30 min after 24 h food-restriction. The entire session was recorded using a camera at 30 fps and ingestion episodes were manually annotated. […]

[4] = tested on: MnPO^GLP1r neurons; assay: Drinking assays with chemogenetic inhibition of MnPO^GLP1r neurons by CNO; details: hM4Di in MnPO^GLP1r
Experimental: as §1
Long-term access assays: Optogenetic Testing—For FIGS. 1L-N and FIGS. 7L-O, satiated mice were given ad libitum access to water for 20 min with photostimulation. Photostimulation was delivered for 1-s followed by 3-s intervals throughout the behavioral sessions. For FIGS. 2J-M and FIGS. 11C-E, mice were given access to water for 20 min after 24 h water-restriction, and photostimulation was delivered for the first 10 min. For feeding assays (FIGS. 2J-M), animals were single-housed in Biodaq cages after 24 h food-restriction, and chow intake was measured for 20 min with or without light stimulation. For acute inhibition experiments, mice were given access to 150 mM NaCl (FIGS. 5D-E, FIGS. 13E-F), water (FIGS. 1L-N, FIGS. 7L-O, FIGS. 13A-D, FIGS. 13G-H) for 20-30 min after 24 h water-restriction or 300 mM sucrose (FIGS. 1L-N, FIGS. 7L-O) after food-restriction. For all acute inhibition experiments, CNO was injected at 10 mg/kg body weight, 30 min prior to the start of the behavior session. For acute activation experiments, CNO was injected at 1 mg/kg body weight (FIGS. 12L-M), 30 min prior to the start of the behavior session. For FIG. 3A, FIGS. 9A-C, and FIG. 13L, water or saline access was provided for 30 min after 24 hours of water restriction. For FIGS. 4A-B, water or HydroGel (ClearH2O) in a cup was provided for 30 min after 24 and 36 hours of water restriction, respectively. The weight of the cup was measured before and after the behavior session. For FIGS. 4K-L, 0.5 pellets of chow was provided for 30 min after 24 h food-restriction. The entire session was recorded using a camera at 30 fps and ingestion episodes were manually annotated.

C[N+]1([O-])CCN(C2=Nc3cc(Cl)ccc3Nc3ccccc32)CC1 [CNO, clozapine-N-oxide]
water drinking [1]: induce water drinking
intake after water or food-restriction ([2]; AAV-DIO-mCherry in the MnPO of nNOS-Cre animals, 5-s brief access): showed no reduction
saline or water drinking, CNO vs vehicle ([2]; mCherry controls in MnPO^GLP1r, water deprived, 30 min): No significant difference
SFO^nNOS-stimulated water intake ([3]; SFO^nNOS photostimulation): severely suppressed water consumption; also recorded: severely reduced
sucrose (300 mM) consumption ([3]; food-restricted animals): did not decrease sugar; also recorded: did not suppress sucrose consumption
dehydration-induced water intake ([3]; water-restricted animals): severely suppressed water consumption; also recorded: severely reduced
water or saline intake under satiated conditions ([4]; satiated): did not elevate water or saline intake
total water intake (30 min) ([4]; water-restricted animals): minor effect
water consumption at the onset of drinking (first 1 min) ([4]; water-restricted animals): significantly increases water consumption at the onset of drinking
total amount of isotonic saline intake ([4]; water-restricted, 30 min, CNO 10 mg/kg vs vehicle): strikingly increased; also recorded: causes overdrinking of isotonic saline
duration of saline intake (time spent for drinking) ([4]; water-restricted, 30 min, CNO vs vehicle): strikingly increased

— patent US10960084B2, “Modulation of fluid intake” (California Institute of Technology, priority 2018, dated 2021)
